Paper PMC7408072 (Pharmaceutics, 2020)
Peptide text beside a SMILES is read from it. * marks the point of attachment. 5TAMRA = CN(C)c1ccc2c(c1)Oc1cc(N(C)C)ccc1C21OC(=O)c2cc(C(=O)*)ccc21

Columns and labels:
[1] = tested on: blood–brain barrier; experiment: In vivo two-photon imaging of BBB permeation; settings: 3 nmol peptide/g body weight via femoral artery, 1 h, mean ± SEM, N = 5; for BBB permeation: AUC of change in TAMRA fluorescence in the brain parenchyma: anesthetized C57BL/6 mice, two-photon imaging; for clearance: AUC of decreased fluorescence in the blood stream: blood vessel ROIs
Experimental: Animals and operational procedure: We used 12–14-week-old C57BL/6 mice (24–26 g) and performed the surgical procedures as described previously. Anesthesia was induced by intraperitoneal (i.p.) injection of xylazine (10 mg/kg body weight; ScanVet, Fredensborg, Denmark) and ketamine (60 mg/kg body weight; MSD Animal Health, København, Denmark), and maintained by supplementary i.p. injections of ketamine (30 mg/kg body weight) every 20–25 min. The trachea was surgically exposed, and a custom-made metal tube inserted into the trachea lumen for mechanical respiration (180–220 μL volume; 190–240 strokes/min) with oxygen-supplemented air (1.5–2 mL/min) using a MiniVent Type 845 ventilator (Harvard Apparatus, Holliston, MA, USA). Catheters were inserted into the femoral vein and the femoral artery. The incisions were closed with surgical staples. After cannulation, the animal was placed in a prone position. The scalp was removed and FeCl3 (0.62 M) administered to clean off the periosteum. The exposed skull was subsequently washed with saline, dried, and attached to a custom-made metal plate using a cyanoacrylate gel (Henkel’s LOCTITE®, Düsseldorf, Germany). The animal head was mounted onto the imaging stage insert and craniotomy performed using a dental drill (7000 rpm; 4 mm lateral and 1 mm posterior to bregma, Ø = 3 mm). The bone flap and dura were carefully removed, and the surface of the brain gently washed with artificial cerebrospinal fluid (120 mM NaCl, 2.8 mM KCl, 1 mM Na2HPO4, 0.876 mM MgCl2, 22 mM NaHCO3, 1.45 mM CaCl2, 2.55 mM glucose, pH 7.4, 37 °C, 5% CO2). We applied 1% type III-A agarose to the brain surface, and a Menzel glass coverslip (4 × 4 mm, 0.08-mm thick; Thermo Fischer Scientific, Bedford, MA, USA) was positioned to seal the major part of the craniotomy, leaving only an opening for the glass microelectrode used in the electrophysiological assessment. The mouse was transferred to the imaging stage. Following the insertion of the glass microelectrode, the anesthesia was switched to α-chloralose administered intravenously at a constant flow of 50 mg/kg body weight/hour. The mouse was left for 25 min for anesthesia equilibration before imaging. During all procedures, the animal was maintained at 37 °C using a YSI-451rectal thermistor probe (E-Z Systems, Palmer, PA, USA) with a TC-1000 Mouse Proportional controlling unit connected to a heating pad (08-13013; CWE Incorporated, Palmer, PA, USA). To ensure optimal animal physiology and level of anesthesia, end-tidal respiratory CO2 was measured using a Capnograph Type 340 (Harvard Apparatus, Holliston, MA, USA), and mean arterial blood pressure was monitored using a BP-1 pressure monitor (World Precision Instruments, Sarasota, FL, USA).
Imaging of BBB permeation: TAMRA-Tat, TAMRA-Tat-NR2B9c, and TAMRA-Tat-N-dimer were administered as 60 µL bolus injections via the catheter inserted into the femoral artery (3 nmol/g body weight). […] The imaging was performed using an SP5 upright laser scanning microscope equipped with a 20 × 1.0 N.A. water-immersion objective (Leica Microsystems, Wetzlar, Germany). Images were obtained in a hyperstack mode, i.e., in a series of Z-stacks in 1-min intervals. Each Z-stack underwent a reduction of dimensionality (maximum signal intensity projection along the Z-axis). TAMRA and FITC were excited with a Millennia Pro MaiTai HP Ti:Sapphire two-photon laser (Spectra Physics, Santa Clara, CA, USA) tuned to 870 nm. The signal was acquired by two multi-alkali NDD photomultipliers after 525–560 and 560–625 nm band pass filters for FITC-dx and TAMRA fluorescence, respectively. Data were exported from LAS AF software (v. 4.4, Leica Microsystems, Wetzlar, Germany) to ImageJ v. 1.48u4 (NIH).

[2] = tested on: bovine BCEC monolayers co-cultured with rat astrocytes; experiment: Barrier integrity by transendothelial electrical resistance (TEER); type: cell-based; settings: 3 h, bovine BBB model; for barrier integrity (TEER before and after peptide application): 100 µM peptide, 37 °C, N = 3, n = 3
Experimental: Transport across bovine or mouse BCEC monolayers co-cultured with rat astrocytes was carried out over 3 h at 37 °C with horizontal shaking (90 rpm). TEER was measured at room temperature using an Endohm 12 cup (World Precision Instruments, Sarasota, FL, USA) connected to a Millicell-ERS device (Millipore, Bedford, MA, USA). TEER was measured before application of the peptides and after each experiment. The bovine model had initial TEER values ranging from 771 to 1332 Ω·cm^2, whereas the mouse model had initial TEER values ranging from 136 to 217 Ω·cm^2.

[3] = Peptide stability in serum-containing cell media; type: in vitro ADME, bovine; settings: differentiation medium with 10% FBS, 37 °C, 100 µM peptide, urea/TCA-acetone protein precipitation, UPLC C18, UV 214 and 498 nm, mean ± SD, N = 2
Experimental: Samples (20 µL) were withdrawn at 0, 15, 30, 60, 120, 180, and 240 min. At room temperature, 50 µL of 6 M urea was added for 10 min to denature plasma proteins. To precipitate plasma proteins, 50 µL of 20% (w/v) trichloroacetic acid in acetone was added and the sample incubated at −20 °C for 10 min. The samples were spun down at 10,000× g for 5 min at 5 °C. The acetone phase containing the TAMRA-peptides was filtered (pore size 0.22 µm) prior to analysis by UPLC using a Waters Acquity system with a C18 BEH reverse phase column (BEH C18 column, 2.1 mm × 50 mm × 1.7 µm). Mobile phase A consisted of 95% ultrapure water and 5% acetonitrile (ACN) with 0.1% trifluoroacetic acid (TFA) and mobile phase B of 95% ACN and 5% ultrapure water with 0.1% TFA. A linear gradient was used (min/%B): 0/5%, 12/45%, 12.1/100%, 13/100%, 13.1/5%, 15/5%, with a flow rate of 0.45 mL/min over 15 min with UV detection at 214 and 498 nm. Lower limits of detection are 6.2 µM for TAMRA-NR2B9c, 0.8 µM for TAMRA-Tat, 1.6 µM for TAMRA-Tat-NR2B9c, and 1.6 µM for TAMRA-Tat-N-dimer.

Row | Compound | BBB permeation: AUC of change in TAMRA fluorescence in the brain parenchyma [1] [F/F0 min] | clearance: AUC of decreased fluorescence in the blood stream [1] [F/F0 min] | barrier integrity (TEER before and after peptide application) [2] | % of the initial concentration remaining after 4 h of incubation in serum-supplemented cell media [3] | barrier integrity (TEER) upon co-application of FITC-dextran with peptide ([2]; 1 mg/mL FITC-dextran with 100 µM peptide)
1 | CN(C)c1ccc2c(c1)Oc1cc(N(C)C)ccc1C21OC(=O)c2cc(C(=O)N[C@@H](Cc3ccc(O)cc3)C(=O)NCC(=O)N[C@@H](CCCNC(=N)N)C(=O)N[C@@H](CCCCN)C(=O)N[C@@H](CCCCN)C(=O)N[C@@H](CCCNC(=N)N)C(=O)N[C@@H](CCCNC(=N)N)C(=O)N[C@@H](CCC(N)=O)C(=O)N[C@@H](CCCNC(=N)N)C(=O)N[C@@H](CCCNC(=N)N)C(=O)N[C@@H](CCCNC(=N)N)C(=O)O)ccc21 [TAMRA-Tat] | 32.21 ± 10.17 | −17.85 ± 1.71 | significant decrease in TEER | 56.0% ± 8.9% | –
2 | CC[C@H](C)[C@H](NC(=O)[C@H](CO)NC(=O)[C@H](CO)NC(=O)[C@H](CC(C)C)NC(=O)[C@H](CCCCN)NC(=O)c1ccc2c(c1)C(=O)OC21c2ccc(N(C)C)cc2Oc2cc(N(C)C)ccc21)C(=O)N[C@@H](CCC(=O)O)C(=O)N[C@@H](CO)C(=O)N[C@@H](CC(=O)O)C(=O)N[C@H](C(=O)O)C(C)C [TAMRA-NR2B9c] (5TAMRA-KLSSIESDV-OH) | – | – | did not affect the barrier integrity | 92.0% ± 12.6% | –
3 | CC[C@H](C)[C@H](NC(=O)[C@H](CO)NC(=O)[C@H](CO)NC(=O)[C@H](CC(C)C)NC(=O)[C@H](CCCCN)NC(=O)[C@H](CCCNC(=N)N)NC(=O)[C@H](CCCNC(=N)N)NC(=O)[C@H](CCCNC(=N)N)NC(=O)[C@H](CCC(N)=O)NC(=O)[C@H](CCCNC(=N)N)NC(=O)[C@H](CCCNC(=N)N)NC(=O)[C@H](CCCCN)NC(=O)[C@H](CCCCN)NC(=O)[C@H](CCCNC(=N)N)NC(=O)CNC(=O)[C@H](Cc1ccc(O)cc1)NC(=O)c1ccc2c(c1)C(=O)OC21c2ccc(N(C)C)cc2Oc2cc(N(C)C)ccc21)C(=O)N[C@@H](CCC(=O)O)C(=O)N[C@@H](CO)C(=O)N[C@@H](CC(=O)O)C(=O)N[C@H](C(=O)O)C(C)C [TAMRA-Tat-NR2B9c] (5TAMRA-YGRKKRRQRRRKLSSIESDV-OH) | 5.54 ± 2.95 | −4.97 ± 1.26 | significant decrease in TEER | 34.3% ± 1.7% | –
4 | CC[C@H](C)[C@H](NC(=O)CCOCCOCCN(CCOCCOCCC(=O)N[C@H](C(=O)N[C@@H](CCC(=O)O)C(=O)N[C@H](C(=O)N[C@@H](CC(=O)O)C(=O)N[C@H](C(=O)O)C(C)C)[C@@H](C)O)[C@@H](C)CC)C(=O)[C@H](CCCNC(=N)N)NC(=O)[C@H](CCCNC(=N)N)NC(=O)[C@H](CCCNC(=N)N)NC(=O)[C@H](CCC(N)=O)NC(=O)[C@H](CCCNC(=N)N)NC(=O)[C@H](CCCNC(=N)N)NC(=O)[C@H](CCCCN)NC(=O)[C@H](CCCCN)NC(=O)[C@H](CCCNC(=N)N)NC(=O)CNC(=O)[C@H](Cc1ccc(O)cc1)NC(=O)c1ccc2c(c1)C(=O)OC21c2ccc(N(C)C)cc2Oc2cc(N(C)C)ccc21)C(=O)N[C@@H](CCC(=O)O)C(=O)N[C@H](C(=O)N[C@@H](CC(=O)O)C(=O)N[C@H](C(=O)O)C(C)C)[C@@H](C)O [TAMRA-Tat-N-dimer] | 6.90 ± 3.90 | −15.02 ± 0.55 | did not affect the barrier integrity | 88.1% ± 1.8% | did not affect barrier integrity
